This note sets out measurements from patent US7833722B2, “Ligands for G protein-coupled receptor protein and use thereof” (Takeda Pharmaceutical Company Limited, priority 2004, dated 2010).

The target in this experiment is GPR17-GFP fusion protein (UniProt P42212+Q13304, F64L/I167T/S65C). The experiment in a line: Movement of GPR17-GFP fusion protein expressed in CHO cells into cells (confocal microscope). The experiment is classed as cell-based, human. The following applies: 100 μM, 45 minutes, 37° C.

Take `NCC(=O)CCC(=O)O` [ALA, 5-aminolevulinic acid]: the “localization of GPR17-GFP fusion protein (fluorescent images of GFP)” value is recorded as “moved in part to the cytoplasm”.
